Experimental data taken from patent US8835420B2, “Azaindole derivatives” (Takeda Pharmaceutical Company Limited, priority 2012, dated 2014).

Target: T1, PI3Kδ (recombinant GST-tagged PIK3CD co-expressed with PIK3R1, p85α) (Homo sapiens, UniProt O00329)
T1 construct: The protein is full length and co-expressed with untagged PIK3R1; GST; purchased Invitrogen PV5274
Assay: PI3Kδ inhibition, modified PIK3CD Adapta TR-FRET kinase assay
Format: biochemical
Conditions: 2 μM ATP, 50 μM PIP2, 1 hour at room temperature, pIC50 = -log(IC50 in M)
Procedure: The activity of compounds as PI3Kδ inhibitors may be determined by a variety of methods, including in vitro and in vivo methods. The following in vitro assay measures a test compound's ability to inhibit PI3Kδ-mediated phosphorylation of PIP2 and ATP.
Recombinant GST-tagged PIK3CD is purchased from Invitrogen (Part Number: PV5274). The protein is full length and co-expressed with untagged PIK3R1, phosphoinositide-3-kinase regulatory subunit 1 (p85α). The protein is stored at −20° C. in 50 mM TRIS (pH 7.5), 150 mM NaCl, 0.5 mM EDTA, 0.02% Triton® X-100, 2 mM DTT, and 50% glycerol.
A modified PIK3CD Adapta® assay (Invitrogen, Carlsbad, Calif.) is used to measure PI3Kδ inhibition of the example compounds. The assay has two phases. In the first phase, kinase reaction components, which include the enzyme (PIK3CD), substrates (PIP2, ATP), test compound (inhibitor), and assay buffer are added to each well, and the reaction is allowed to incubate for a pre-determined period of time. After reaction, a detection solution composed of a Eu (europium)-labeled anti-ADP antibody, Alexa Fluor® 647-labeled ADP tracer, and EDTA (to stop the kinase reaction) is added to each assay well. In this second phase, ADP formed by the kinase reaction displaces the Alexa Fluor® 647-labeled ADP tracer from the antibody, resulting in a decrease in time-resolved fluorescence resonance energy transfer (TR-FRET) signal. In the presence of the inhibitor, the amount of ADP formed by the kinase reaction is reduced, and the resulting intact antibody-tracer interaction maintains a high TR-FRET signal.
The assay uses black Greiner® 384-well plates (784076). The reaction buffer contains 50 mM Hepes (pH 7.5), 3 mM MgCl2, 1 mM EGTA, 100 mM NaCl, 0.03% CHAPS; 2 mM DTT is added fresh prior to each experiment. Enzyme (4 μL, estimated 1.5 nM in buffer) is first added to the wells of the plate. Next, test compounds (2 μL) from a source plate (5% dilution plate) are introduced into the wells. The final DMSO concentration in each assay well is 1%. The dilution plate contains 5% DMSO in the bottom half of columns 23 and 24, which serve as negative (non-inhibited) controls; the top half contains a known inhibitor concentration (positive control) that gives >98% inhibition of the kinase reaction. Other wells contain test compounds serially diluted across the plate 11 times for a total of 12 data points. The kinase reactions are carried out at room temperature and are initiated by the addition of 4 μL of solution containing 2 μM ATP and 50 μM PIP2. Each reaction is stopped after 1 hour±10 minutes via addition of 10 μL stop solution, which contains a final assay concentration of 3 nM Alexa Fluor® 647-labeled ADP tracer, 2 nM Eu-anti-ADP Antibody, and 10 mM EDTA. After allowing the solutions to equilibrate for 30±10 minutes, a PHERAstar plate reader is used to excite the Eu donor (at 337 nm) and to detect emission from the Alexa Fluor® 647 at 665 nm. This emission signal is referenced or “ratioed” to the emission from Eu at 620 nm. The emission ratio (665 nm/620 nm) from each well is collected and converted to percent conversion using a standard curve for the assay conditions: % conversion=B*(C+A−emission ratio)/(emission ratio−C), where “A” and “C” are the maximum and minimum values of the emission ratio obtained from the standard curve of emission ratio vs. % conversion (ATP-ADP); “B” is the emission ratio corresponding to the % conversion at the EC50 value for the ADP Tracer—Eu anti-ADP antibody complex. The percent inhibition for a given inhibitor concentration is computed from % conversion for the reaction and for the positive and negative controls. Corresponding IC50 values are calculated by non-linear curve fitting of the compound concentrations and values of percent inhibition to the standard IC50 equation and are reported as pIC50, i.e., −log(IC50), where IC50 is molar concentration at 50% inhibition.

T1 sequence (O00329 whole entry): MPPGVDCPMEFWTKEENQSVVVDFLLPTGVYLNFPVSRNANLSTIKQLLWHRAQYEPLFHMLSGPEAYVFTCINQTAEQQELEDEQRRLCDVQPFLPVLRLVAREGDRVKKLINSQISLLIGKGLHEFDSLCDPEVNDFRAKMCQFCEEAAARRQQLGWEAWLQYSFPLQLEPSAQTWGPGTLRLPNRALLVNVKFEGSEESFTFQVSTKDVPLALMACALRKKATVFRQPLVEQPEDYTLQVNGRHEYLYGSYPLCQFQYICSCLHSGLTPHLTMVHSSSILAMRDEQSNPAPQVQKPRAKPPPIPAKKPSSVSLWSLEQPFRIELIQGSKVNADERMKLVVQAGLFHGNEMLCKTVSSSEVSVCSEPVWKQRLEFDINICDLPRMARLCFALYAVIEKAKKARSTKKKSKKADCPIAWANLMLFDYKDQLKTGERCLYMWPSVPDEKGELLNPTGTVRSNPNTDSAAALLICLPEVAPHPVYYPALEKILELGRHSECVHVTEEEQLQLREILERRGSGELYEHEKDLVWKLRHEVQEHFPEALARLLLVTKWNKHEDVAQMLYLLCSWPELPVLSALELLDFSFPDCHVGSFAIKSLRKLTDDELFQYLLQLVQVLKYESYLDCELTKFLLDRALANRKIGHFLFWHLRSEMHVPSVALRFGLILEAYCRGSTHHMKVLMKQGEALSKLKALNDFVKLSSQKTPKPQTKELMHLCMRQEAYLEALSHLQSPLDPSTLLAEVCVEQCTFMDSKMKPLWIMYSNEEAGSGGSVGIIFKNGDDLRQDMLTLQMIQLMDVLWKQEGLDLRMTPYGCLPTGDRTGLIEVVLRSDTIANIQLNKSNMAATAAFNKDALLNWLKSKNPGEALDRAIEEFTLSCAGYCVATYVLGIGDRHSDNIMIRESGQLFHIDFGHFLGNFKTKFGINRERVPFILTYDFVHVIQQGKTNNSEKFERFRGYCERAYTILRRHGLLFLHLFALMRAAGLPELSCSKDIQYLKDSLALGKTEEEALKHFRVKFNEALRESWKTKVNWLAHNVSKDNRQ
T1 sequence (P27986 whole entry partner): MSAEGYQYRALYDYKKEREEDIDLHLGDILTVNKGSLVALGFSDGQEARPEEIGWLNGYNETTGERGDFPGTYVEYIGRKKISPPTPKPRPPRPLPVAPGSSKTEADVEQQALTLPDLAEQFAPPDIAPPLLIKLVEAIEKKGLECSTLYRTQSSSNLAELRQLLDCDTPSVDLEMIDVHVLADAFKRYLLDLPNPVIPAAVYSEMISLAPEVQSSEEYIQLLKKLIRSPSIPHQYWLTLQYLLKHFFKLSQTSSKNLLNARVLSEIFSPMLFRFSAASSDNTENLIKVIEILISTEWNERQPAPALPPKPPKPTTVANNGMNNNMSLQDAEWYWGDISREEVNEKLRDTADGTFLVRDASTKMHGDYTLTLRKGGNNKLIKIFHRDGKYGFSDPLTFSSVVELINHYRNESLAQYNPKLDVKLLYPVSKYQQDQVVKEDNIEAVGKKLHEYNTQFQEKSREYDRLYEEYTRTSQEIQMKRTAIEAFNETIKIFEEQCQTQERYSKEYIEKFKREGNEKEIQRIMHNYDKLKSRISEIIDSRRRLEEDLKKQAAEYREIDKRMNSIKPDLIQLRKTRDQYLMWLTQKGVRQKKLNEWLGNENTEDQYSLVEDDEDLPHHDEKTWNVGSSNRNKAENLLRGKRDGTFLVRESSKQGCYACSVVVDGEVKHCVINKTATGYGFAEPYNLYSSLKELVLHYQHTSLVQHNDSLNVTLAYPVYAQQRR

Structure (SMILES)	IC50 [nM]
C[C@H](Nc1nc(N)nc(N)c1C#N)c1nc2ccn(C)c2cc1C1CCOCC1 [Example 26, (S)-2,4-Diamino-6-((1-(1-methyl-6-(tetrahydro-2H-pyran-4-yl)-1H-pyrrolo[3,2-b]pyridin-5-yl)ethyl)amino)pyrimidine-5-carbonitrile]	< 2
C[C@H](Nc1nc(N)nc2[nH]cnc12)c1nc2ccn(C)c2cc1N1CCOCC1 [Example 27, (S)—N^6-(1-(1-Methyl-6-morpholino-1H-pyrrolo[3,2-b]pyridin-5-yl)ethyl)-9H-purine-2,6-diamine]	10
C[C@H](Nc1nc(N)nc(N)c1Cl)c1nc2ccn(C)c2cc1N1CCOCC1 [Example 28, (S)-5-Chloro-N^4-(1-(1-methyl-6-morpholino-1H-pyrrolo[3,2-b]pyridin-5-yl)ethyl)pyrimidine-2,4,6-triamine]	126
C[C@H](Nc1nc(N)nc(N)c1C#N)c1nc2ccn(C)c2cc1N1CCOCC1 [Example 29, (S)-2,4-Diamino-6-((1-(1-methyl-6-morpholino-1H-pyrrolo[3,2-b]pyridin-5-yl)ethyl)amino)pyrimidine-5-carbonitrile]	< 1.26
Cc1noc(C)c1-c1cc2c(ccn2C)nc1[C@H](C)Nc1nc(N)nc(N)c1C#N [Example 30, 2,4-Diamino-6-(((1S)-1-(6-(3,5-dimethylisoxazol-4-yl)-1-methyl-1H-pyrrolo[3,2-b]pyridin-5-yl)ethyl)amino)pyrimidine-5-carbonitrile]	< 1
Cc1nc(N)nc(N[C@@H](C)c2nc3ccn(C)c3cc2-c2c(C)noc2C)c1C#N [Example 31, 2-Amino-4-(((1S)-1-(6-(3,5-dimethylisoxazol-4-yl)-1-methyl-1H-pyrrolo[3,2-b]pyridin-5-yl)ethyl)amino)-6-methylpyrimidine-5-carbonitrile]	3.98
C[C@H](Nc1nc(N)nc(N)c1C#N)c1nc2ccn(C)c2cc1-c1ccnn1C(F)F [Example 32, (S)-2,4-Diamino-6-((1-(6-(1-(difluoromethyl)-1H-pyrazol-5-yl)-1-methyl-1H-pyrrolo[3,2-b]pyridin-5-yl)ethyl)amino)pyrimidine-5-carbonitrile]	1.58
C[C@H](Nc1nc(N)nc(N)c1Cl)c1nc2ccn(C)c2cc1-c1ccnn1C [Example 33, (S)-5-Chloro-N^4-(1-(1-methyl-6-(1-methyl-1H-pyrazol-5-yl)-1H-pyrrolo[3,2-b]pyridin-5-yl)ethyl)pyrimidine-2,4,6-triamine]	31.6
C[C@H](Nc1nc(N)nc2[nH]cnc12)c1nc2ccn(C)c2cc1-c1ccccn1 [Example 34, (S)—N^6-(1-(1-Methyl-6-(pyridin-2-yl)-1H-pyrrolo[3,2-b]pyridin-5-yl)ethyl)-9H-purine-2,6-diamine]	5.01
C[C@H](Nc1nc(N)nc(N)c1C#N)c1nc2ccn(C)c2cc1-c1ccnn1C1CC1 [Example 35, (S)-2,4-Diamino-6-((1-(6-(1-cyclopropyl-1H-pyrazol-5-yl)-1-methyl-1H-pyrrolo[3,2-b]pyridin-5-yl)ethyl)amino)pyrimidine-5-carbonitrile]	2.51
C[C@H](Nc1nc(N)nc2[nH]cnc12)c1nc2ccn(C)c2cc1-c1ccnn1C1CC1 [Example 36, (S)-N^6-(1-(6-(1-Cyclopropyl-1H-pyrazol-5-yl)-1-methyl-1H-pyrrolo[3,2-b]pyridin-5-yl)ethyl)-9H-purine-2,6-diamine]	10
C[C@H](Nc1nc(N)nc2[nH]cnc12)c1nc2ccn(C)c2cc1-c1ccnn1C(F)F [Example 37, (S)-N^6-(1-(6-(1-(Difluoromethyl)-1H-pyrazol-5-yl)-1-methyl-1H-pyrrolo[3,2-b]pyridin-5-yl)ethyl)-9H-purine-2,6-diamine]	10
CC(Nc1nc(N)nc(N)c1Cl)c1nc2ccn(C)c2cc1N1CC(F)(F)C1 (stereo not shown) [Example 38, 5-Chloro-N^4-(1-(6-(3,3-difluoroazetidin-1-yl)-1-methyl-1H-pyrrolo[3,2-b]pyridin-5-yl)ethyl)pyrimidine-2,4,6-triamine]	158
CC(Nc1nc(N)nc(N)c1C#N)c1nc2ccn(C)c2cc1N1CC(O)C1 (stereo not shown) [Example 39, 2,4-Diamino-6-((1-(6-(3-hydroxyazetidin-1-yl)-1-methyl-1H-pyrrolo[3,2-b]pyridin-5-yl)ethyl)amino)pyrimidine-5-carbonitrile]	< 1.58
CC(Nc1nc(N)nc(N)c1Cl)c1nc2ccn(C)c2cc1N1CC(O)C1 (stereo not shown) [Example 40, 1-(5-(1-((2,6-Diamino-5-chloropyrimidin-4-yl)amino)ethyl)-1-methyl-1H-pyrrolo[3,2-b]pyridin-6-yl)azetidin-3-ol]	79.4
COC1CN(c2cc3c(ccn3C)nc2[C@H](C)Nc2nc(N)nc(N)c2C#N)C1 [Example 41, (S)-2,4-Diamino-6-((1-(6-(3-methoxyazetidin-1-yl)-1-methyl-1H-pyrrolo[3,2-b]pyridin-5-yl)ethyl)amino)pyrimidine-5-carbonitrile]	< 1.58
C[C@@H](Nc1nc(N)nc(N)c1C#N)c1nc2ccn(C)c2cc1N1CC(F)(F)C1 [Example 43, (R)-2,4-Diamino-6-((1-(6-(3,3-difluoroazetidin-1-yl)-1-methyl-1H-pyrrolo[3,2-b]pyridin-5-yl)ethyl)amino)pyrimidine-5-carbonitrile]	1000
C[C@H](Nc1nc(N)nc(N)c1C#N)c1nc2ccn(C)c2cc1N1CC(F)(F)C1 [Example 44, (S)-2,4-Diamino-6-((1-(6-(3,3-difluoroazetidin-1-yl)-1-methyl-1H-pyrrolo[3,2-b]pyridin-5-yl)ethyl)amino)pyrimidine-5-carbonitrile]	2
C[C@@H](Nc1nc(N)nc(N)c1C#N)c1nc2ccn(C)c2cc1N1CC2(COC2)C1 [Example 46, (R)-2,4-Diamino-6-((1-(1-methyl-6-(2-oxa-6-azaspiro[3.3]heptan-6-yl)-1H-pyrrolo[3,2-b]pyridin-5-yl)ethyl)amino)pyrimidine-5-carbonitrile]	200
C[C@H](Nc1nc(N)nc(N)c1C#N)c1nc2ccn(C)c2cc1N1CC2(COC2)C1 [Example 47, (S)-2,4-Diamino-6-((1-(1-methyl-6-(2-oxa-6-azaspiro[3.3]heptan-6-yl)-1H-pyrrolo[3,2-b]pyridin-5-yl)ethyl)amino)pyrimidine-5-carbonitrile]	15.8
C[C@@H](Nc1nc(N)nc(N)c1C#N)c1nc2ccn(C)c2cc1N1CCOCC1 [Example 48, (R)-2,4-Diamino-6-((1-(1-methyl-6-morpholino-1H-pyrrolo[3,2-b]pyridin-5-yl)ethyl)amino)pyrimidine-5-carbonitrile]	79.4
C[C@H](Nc1nc(N)nc(N)c1C#N)c1nc2c(O)cn(C)c2cc1N1CCOCC1 [Example 49, (S)-2,4-Diamino-6-((1-(3-hydroxy-1-methyl-6-morpholino-1H-pyrrolo[3,2-b]pyridin-5-yl)ethyl)amino)pyrimidine-5-carbonitrile]	251
